Assay results reported in patent publication US11964052B2, “Lipid compounds and lipid nanoparticle compositions” (SUZHOU ABOGEN BIOSCIENCES CO., LTD., priority 2021, dated 2024).

Experiments:
Format in all cases: physicochemical
[1] = Encapsulation efficiency of lipid nanoparticles, Quant-it Ribogreen RNA quantification assay; details: LNP with mRNA
Procedure: (§1) Briefly, a cationic lipid provided herein, DSPC, cholesterol, and PEG-lipid were solubilized in ethanol at a molar ratio of 50:10:38.5:1.5, and mRNA were diluted in 10 to 50 mM citrate buffer, pH=4. The LNPs were prepared at a total lipid to mRNA weight ratio of approximately 10:1 to 30:1 by mixing the ethanolic lipid solution with the aqueous mRNA solution at a volume ratio of 1:3 using a microfluidic apparatus, total flow rate ranging from 9-30 mL/min. Ethanol were thereby removed and replaced by DPBS using dialysis. Finally, the lipid nanoparticles were filtered through a 0.2 μm sterile filter.
(§2) Lipid nanoparticle size were determined by dynamic light scattering using a Malvern Zetasizer Nano ZS (Malvern UK) using a 173° backscatter detection mode. The encapsulation efficiency of lipid nanoparticles were determined using a Quant-it Ribogreen RNA quantification assay kit (Thermo Fisher Scientific, UK) according to the manufacturer's instructions.

[2] = Apparent pKa of LNP formulations, TNS fluorescence assay; details: LNP cationic lipid/DSPC/cholesterol/DMG-PEG 50/10/38.5/1.5 mol %, pH 3 to 9
Procedure: As reported in literature, the apparent pKa of LNP formulations correlates with the delivery efficiency of LNPs for nucleic acids in vivo. The apparent pKa of each formulation was determined using an assay based on fluorescence of 2-(p-toluidino)-6-napthalene sulfonic acid (TNS). LNP formulations comprising of cationic lipid/DSPC/cholesterol/DMG-PEG (50/10/38.5/1.5 mol %) in PBS were prepared as described above. TNS was prepared as a 300 uM stock solution in distilled water. LNP formulations were diluted to 0.1 mg/ml total lipid in 3 mL of buffered solutions containing 50 mM sodium citrate, 50 mM sodium phosphate, 50 mM sodium borate, and 30 mM sodium chloride where the pH ranged from 3 to 9. An aliquot of the TNS solution was added to give a final concentration of 0.1 mg/ml and following vortex mixing fluorescence intensity was measured at room temperature in a Molecular Devices Spectramax iD3 spectrometer using excitation and mission wavelengths of 325 nm and 435 nm. A sigmoidal best fit analysis was applied to the fluorescence data and the pKa value was measured as the pH giving rise to half-maximal fluorescent intensity.

[3] = Lipid nanoparticle size and polydispersity by dynamic light scattering (Malvern Zetasizer Nano ZS); details: LNP of cationic lipid/DSPC/cholesterol/PEG-lipid 50:10:38.5:1.5 with mRNA
Procedure: as §1, §2

| Compound | Encapsulation Efficiency [1] [%] | Apparant Pka [2] | polydispersity [3] | size (nm) [3] [nm] |
| --- | --- | --- | --- | --- |
| CCCCCCCCCCCCOCC(CN(CCO)C1CCC1)OCCCCCCCCCCCC (stereo not drawn) [Compound 1] | 96.3 | 5.902 | 0.12 | 72.4 |
| CCCCCCCCCCCCOCC(CN(CCO)C1CCC1)OC(=O)CCCCCCCCCCC (stereo not drawn) [Compound 2] | 94.5 | 5.177 | 0.094 | 69.05 |
| CCCCCCCCCCCCOCC(CN(CCO)C1CCC1)OC(=O)CCCCC (stereo not drawn) [Compound 3] | 92.8 | – | 0.124 | 105.6 |
| CCCCCCCCCCCCOCC(CN(CCO)C1CCC1)OCCCCCC(=O)OCC(CCCCCC)CCCCCCCC (stereo not drawn) [Compound 4] | 94.6 | 5.083 | 0.2 | 54.52 |
| CCCCCCCCCCCCOCC(CN(C)CCN(CCO)C1CCCC1)OCCCCCC (stereo not drawn) [Compound 5] | 92.4 | 7.315 | 0.384 | 78.36 |
| CCCCCCCCCCCCOCC(CN(C)CCN(CCO)C1CCCCC1)OCCCCCCCCCCCC (stereo not drawn) [Compound 6] | 93.4 | 7.035 | 0.241 | 126.4 |
| CCCCCCCCCCCCOCC(O)CN(CCCCCC(=O)OCC(CCCCCC)CCCCCCCC)CCN(C)C (stereo not drawn) [Compound 7] | 96.7 | 8.7 | 0.063 | 85.46 |
| CCCCCCCCCCCCOCC(O)CN(CCCCCC(=O)OCC(CCCCCC)CCCCCCCC)CCN1CCCCC1 (stereo not drawn) [Compound 8] | 88.2 | 7.327 | 0.156 | 102.9 |
| CCCCCCCCCCCCOCC(CN(CCCCCC(=O)OCC(CCCCCC)CCCCCCCC)CCN1CCCCC1)OC(C)=O (stereo not drawn) [Compound 9] | 90.8 | – | 0.144 | 70.97 |
| CCCCCCCCCCCCOCC(O)CN(CCCCCC(=O)OCC(CCCCCC)CCCCCCCC)CCN1CCCC1 (stereo not drawn) [Compound 10] | 94.8 | – | 0.356 | 84.22 |
| CCCCCCCCCCCCOCC(O)CN(CCCCCC(=O)OCC(CCCCCC)CCCCCCCC)CCN(CC)CC (stereo not drawn) [Compound 11] | 82.2 | 7.701 | 0.196 | 77.98 |
| CCCCCCCCCCCCOCC(O)CN(CCO)CCCCCC(=O)OCC(CCCCCC)CCCCCCCC (stereo not drawn) [Compound 13] | 94.2 | 7.089 | 0.128 | 61.3 |
| CCCCCCCCCCCCOCC(CN(CCO)CCCCCC(=O)OCC(CCCCCC)CCCCCCCC)OC(=O)CCCCC (stereo not drawn) [Compound 14] | 86.1 | 4.536 | 0.4 | 56.31 |
| CCCCCCCCCCCCOCC(CN(CCCCCC(=O)OCC(CCCCCC)CCCCCCCC)CCN1CCCCC1)OC(=O)CCCCC (stereo not drawn) [Compound 15] | 93.5 | 5.875 | 0.139 | 62.11 |
| CCCCCCCCCCCCOCC(CN(CCCCCC)CCN(CCO)C1CCC1)OCCCCCCCCCCCC (stereo not drawn) [Compound 16] | 89.8 | – | 0.060 | 74.31 |
| CCCCCCCCCCCCOCC(CN(CCCCCCCCCCCC)CCN(CCO)C1CCC1)OCCCCCCCCCCCC (stereo not drawn) [Compound 17] | 92.8 | 5.835 | 0.186 | 79.43 |
| CCCCCCCCCCCCOCC(CN(CCO)CCCCCC(=O)OCC(CCCCCC)CCCCCCCC)OC(C)=O (stereo not drawn) [Compound 18] | 90.6 | 4.916 | 0.17 | 65.06 |
| CCCCCCCCCCCCOCC(CN(CCO)CCCCCC(=O)OCC(CCCCCC)CCCCCCCC)OC(=O)CC (stereo not drawn) [Compound 19] | 88.5 | 4.957 | 0.156 | 117.5 |

| Compound | Encapsulation Efficiency [1] [%] | Apparant Pka [2] | polydispersity [3] | size (nm) [3] [nm] |
| --- | --- | --- | --- | --- |
| CCCCCCCCCCCCOCC(CN(CCCCCC(=O)OCC(CCCCCC)CCCCCCCC)CCN(CCO)C1CCC1)OC(C)=O (stereo not drawn) [Compound 20] | 90.7 | 5.96 | 0.145 | 67.7 |
| CCCCCCCCCCCCOCC(CN(CCCCCC(=O)OCC(CCCCCC)CCCCCCCC)CCN(CCO)C1CCCCC1)OC(C)=O (stereo not drawn) [Compound 21] | 85.5 | 5.49 | 0.221 | 74.88 |
| CCCCCCCCCCCCOCC(CN(CCCCCC(=O)OCC(CCCCCC)CCCCCCCC)CCN(CCO)C1CC1)OCCCCCC (stereo not drawn) [Compound 22] | 83.5 | 5.457 | 0.206 | 68.67 |
| CCCCCCCCCCCCOCC(CN(CCCCCC(=O)OCC(CCCCCC)CCCCCCCC)CCN(CCO)C1CCC1)OCCCCCC (stereo not drawn) [Compound 23] | 88.5 | 5.993 | 0.076 | 74.73 |
| CCCCCCCCCCCCOCC(CN(CCCCCC(=O)OCC(CCCCCC)CCCCCCCC)CCN(CCO)C1CCCC1)OCCCCCC (stereo not drawn) [Compound 24] | 93.0 | 6.005 | 0.094 | 56.39 |
| CCCCCCCCCCCCOCC(CN(CCCCCC(=O)OCC(CCCCCC)CCCCCCCC)CCN(CCO)C1CCCCC1)OCCCCCC (stereo not drawn) [Compound 25] | 94.70 | – | 0.112 | 58.01 |
| CCCCCCCCCCCCOCC(CN(CCCCCC(=O)OCC(CCCCCC)CCCCCCCC)CCN(CCO)C1CCCCCC1)OCCCCCC (stereo not drawn) [Compound 26] | 93.30 | 5.696 | 0.153 | 55.8 |
| CCCCCCCCCCCCOCC(CN(CCCCCC(=O)OCC(CCCCCC)CCCCCCCC)CCN(CCO)C1CC1)OCCCCCCCCCCCC (stereo not drawn) [Compound 27] | 73.3 | 5.351 | 0.139 | 65.62 |
| CCCCCCCCCCCCOCC(CN(C)CCN(CCO)C1CCC1)OC(=O)CCCC (stereo not drawn) [Compound 40] | 36.4 | – | 0.326 | 230 |
| CCCCCCCCC(CCCCCCCC)CNC(=O)CCOCC(CN(C)CCN(CCO)C1CCCCC1)OCCC(=O)NCC(CCCCCCCC)CCCCCCCC (stereo not drawn) [Compound 52] | 96.5 | – | 0.14 | 66.03 |
| CCCCCCCCC(CCCCCCCC)CNC(=O)CCOCC(CN(C)CCN(CCO)C1CCCCCC1)OCCC(=O)NCC(CCCCCCCC)CCCCCCCC (stereo not drawn) [Compound 58] | 97.3 | – | 0.032 | 56.37 |
| CCCCCCC(CCCCCC)COC(=O)CCCCCN(CCN1CCC(O)C1)CC(COC(=O)CCCCC)OC(=O)CCCCC (stereo not drawn) [Compound 59] | 96.1 | – | 0.049 | 94.89 |
| CCCCC/C=C\C/C=C\CCCCCCCC(=O)OCC(CN(C)CCN(CCO)C1CCC1)OC(=O)CCCCCCC/C=C\C/C=C\CCCCC (stereo not drawn) [Compound 64] | 91.6 | – | 0.075 | 73.8 |
| CCCCCCCCC(CCCCCCCC)COC(=O)CCOCC(CN(C)CCN(CCO)C1CCCCC1)OCCC(=O)OCC(CCCCCCCC)CCCCCCCC (stereo not drawn) [Compound 72] | 95.22 | – | 0.055 | 81.89 |
| CCCCCCCCCCCCCCCC(=O)OCC(CCCCN(CCO)C1CCCCC1)COC(=O)CC(CCCCCC)CCCCCCCC (stereo not drawn) [Compound 86] | 92.81 | – | 0.03 | 73.58 |
| CCCCCCCCCCC(=O)OCC(CCCCN(CCO)C1CCCCCC1)COC(=O)CC(CCCCCC)CCCCCCCC (stereo not drawn) [Compound 92] | 90.25 | – | 0.051 | 70.85 |
| CCCCCCCCC(CCCCCC)COC(=O)CCOCC(CN(CCCCCC)CCN(CCO)C1CCCCCC1)OCCC(=O)OCC(CCCCCC)CCCCCCCC (stereo not drawn) [Compound 107] | 93.66 | – | 0.067 | 61.18 |
| CCCCCCCCCC(CCCCC)COC(=O)CCOCC(CN(CCO)C1CCC1)OCCC(=O)OCC(CCCCCC)CCCCCCCC (stereo not drawn) [Compound 108] | 92.04 | – | 0.097 | 47.87 |
